Legend:
Assay in all cases: Broth microdilution antifungal assay
Type in all cases: cell-based
Conditions in all cases: Sabouraud dextrose broth, 30° C., 48 hours
[1] = system: C. albicans SLU1
Method: (§1) For example, studies were performed to evaluate the antifungal activity of the recombinant peptide from pING4702 purified according to Example 6 in a broth microdilution assay using four strains of C. albicans, C. glabrata and S. cerevisiae. A similar peptide, XMP.391, that was chemically synthesized, was included in the assay as a positive control. To perform the broth microdilution assay, the fungal cultures were grown overnight at 30° C. in YPD medium (1% yeast extract, 2% peptone, and 2% dextrose). A 400 fold dilution of each culture in YPD was then made, and grown at 30° C. for 8 hours. Three mL of each culture were collected by centrifugation and suspended in 0.9% NaCl to an A600 of about 0.3. These cultures were further diluted to 1×10^4 CFU/mL in Sabouraud dextrose broth (6 mL). Recombinant peptide was in 5 mM acetate, 150 mM NaCl, pH 5.0 at a concentration of about 2 mg/mL. Synthetic peptide was at about 1 mg/mL. Samples were serially diluted and added to microtiter plates containing the cultures. Plates were incubated at 30° C. for 48 hours before growth inhibition was measured.

[2] = system: C. albicans 14053
Method: as §1

[3] = system: C. glabrata 2001
Method: as §1

[4] = system: C. albicans 10231
Method: as §1

[5] = system: S. cerevisiae 9763
Method: as §1

[6] = system: C. albicans 26555
Method: as §1

Substance	Concentration that gives 95% inhibition [1]	Concentration that gives 95% inhibition [2]	Concentration that gives 95% inhibition [3]	Concentration that gives 95% inhibition [4]	Concentration that gives 95% inhibition [5]	Concentration that gives 95% inhibition [6]
Recombinant Peptide: BPI-derived peptide (SEQ ID NO: 3) acid-released from the Bone D-Asp-Pro-Pro-peptide fusion protein encoded by pING4702, purified according to Example 6 (KVGWLIQLFHKK; Human)	16 µM	16 µM	30 µM	30 µM	7.5 µM	30 µM
XMP.391: Chemically synthesized 12 amino acid BPI-derived peptide (Lys Val Gly Trp Leu Ile Gln Leu Phe His Lys Lys), positive control (KVGWLIQLFHKK; printed: Lys Val Gly Trp Leu Ile Gln Leu Phe His Lys Lys)	13.5 µM	16 µM	30 µM	16 µM	2.0 µM	16 µM
